Where “and” joins values, the source holds several entries; their conditions need not be identical. Identical values can stand only once.
Tests used:
guinea pig trachia = assay: Carbachol-induced spasm of guinea pig trachea; conditions: Cavia porcellus; spasm triggered by 3.9 μM carbachol; read-out: active substance concentration at which strong to very strong dilatation was clearly determinable
Source text: (§1) The testing of the compounds for antiasthmatic activity follows on isolated lung strips and isolated tracheal rings from guinea pigs according to measuring methods known from the literature (supra) in modified form. The measurements follow in thermostatically controlled organ bath, isotonically using a contraction measuring arrangement with lift receiver, measuring coil, measuring amplifier (inductive measurement with the aid of a high frequency resonant circuit). The gasification follows with air. The suspension solution has the following composition: 39.46 g NaCl, 2.2 g KCl, 6.07 g Tris, 1.0 g CaCl2, 9.9 g glucose, 1.0 ml saturated MgCl2 -solution, 43 ml 1N HCl; pH 7.4.
(b) Activity on the carbachol-induced spasm of guinea pig trachia
The spasms are triggered by 3.9 μM carbachol.

guinea pig lung strips = assay: Activity on the basal tones of guinea pig lung strips; conditions: Cavia porcellus, basal tone, cumulative dose-activity curve
Source text: as §1
(c) Activity on the basal tones of guinea pig lung strips.
Increasing concentrations of the active substance are added to the suspension medium. There occurs a dilatation, which is cumulatively measured. From the Dose-Activity-curves are provided the following parameters: […]

thrombocyte aggregation = assay: Arachidonic acid-induced thrombocyte aggregation in thrombocyte-rich plasma; assay type: cell-based, humans; conditions: Homo sapiens; 0.8 mM arachidonic acid; concentration giving total restraint of aggregation
Source text: Since with the new medicines the restraints of lipoxygenase has been identified as a molecular type of attack, also their influence on the thrombocyte-aggregation has been tested. The essential role of the lipoxygenase pathway for irreversibility of the thrombocyte aggregation is now known. (C. E. Dutilh et al. Prostaglandins and Medicine 6, 111 (1981)). The key role is attributed to the irreversibility of the thrombocyte aggregation in the pathogenesis of thrombotic illnesses. […] In the experiments, the thrombocyte aggregation was triggered either by means of arachidonic acid or by means of platelet activation factor (PAF-Acether).
The testing of the compounds for antithrombotic and thrombolytic activity follows in authentic cell systems of humans in vitro. Thrombocyte-rich plasma from the blood of healthy donors is obtained by centrifugation at 1,000×g. The measurement of the thrombocyte aggregation follows by means of an aggregometer based upon diffuse light scattering or light absorption of the produced cell aggregate. The thrombocyte-rich plasma is pre-incubated at 37° C. for 3 minutes with the active substance or substances; thereafter the thrombocyte aggregation is triggered through the addition of either 0.8 mM arachidonic acid or 1 μM platelet activation factor (PAF-acether). The preparations are then stirred with a velocity of 800 rpm. Indeed according to the employed active substance concentration there occurs either a strong delay or a complete inhibition of the thrombocyte aggregation.

[1] = system: carrageenin edema of rat paws; assay: Inhibition of carrageenin edema of rat paws; assay type: in vivo; conditions: 200 mg/kg perorally, rats
Method: The inflammation-inhibiting activity of the compounds of Formula I is expressed, among others, by an inhibition of carrageenin edema in rat paws (see Example 9).
The carrageenin edema is employed in international literature as a model system for inflammation-triggering (prophlogistic) procedures, and offers the possibility of in vivo testing of compounds for inflammation-inhibiting (antiphlogistic) activity.
2(2'-naphthoxy)-acethydroxamic acid is supplied to 10 rats perorally in a dose of 200 mg/kg body weight with simultaneous delivery of 0.1 ml 1% carrageenin solution per animal. The extent of the paw edema is measured hourly after the application, and compared with the control group.

[2] = target: T1, arachidonate-lipoxygenase of human thrombocyte (Homo sapiens, UniProt P18054); assay: Arachidonate-lipoxygenase activity of microsome-free lysate of human thrombocyte concentrates; assay type: biochemical; conditions: 0.25 mM
T1 construct: microsome-free lysate of human thrombocyte concentrates; from tissue; host or cells: human thrombocyte (platelet) concentrates, microsome-free lysate
Method: (§2) The inhibition of thrombocyte aggregation is likewise ascribed to the inhibition of lipoxygenase in the cells. It has thus been shown that the arachidonate-lipoxygenase activity of a microsome-free lysate of human thrombocyte concentrates is inhibited to the extent of 100% by means of 0.25 mM salicylhydroxamic acid. Moreover, it has been shown that also a series of further lipoxygenases are inhibited by means of the here described hydroxamic acids. The lipoxygenase from soybeans reacts the most insensitive, i.e. it is inhibited by means of 1 mM salicylhydroxamic acid at pH 7.4 to an extent of 60% and by means of 0.4 mM 2-hydroxy-1-napthylhydroxamic acid to an extent of 54%. In contrast, for the lipoxygenase from peas which come closer in their characteristics to human lipoxygenase, the following I50 -values are provided: salicyl hydroxamic acid, 5 μM, 2-hydroxy-1-napthylhydroxamic acid, 2 μM, 2(2'-napthoxy)-acethydroxamic acid, 2 μM. Moreover it has been shown that the formation lipoxygenase products of arachidonic acid in in vitro cultivated aorta endothelial cells of calves is hindered through 0.1 mM 2-hydroxy-1-napthylhydroxamic acids.

[3] = target: T2, lipoxygenase from soybeans (Glycine max, UniProt P08170); assay: Inhibition of lipoxygenase from soybeans; assay type: biochemical; conditions: pH 7.4, read-out: inhibition of soybean lipoxygenase
T2 construct: host or cells: soybeans
T2 sequence (P08170 1-839): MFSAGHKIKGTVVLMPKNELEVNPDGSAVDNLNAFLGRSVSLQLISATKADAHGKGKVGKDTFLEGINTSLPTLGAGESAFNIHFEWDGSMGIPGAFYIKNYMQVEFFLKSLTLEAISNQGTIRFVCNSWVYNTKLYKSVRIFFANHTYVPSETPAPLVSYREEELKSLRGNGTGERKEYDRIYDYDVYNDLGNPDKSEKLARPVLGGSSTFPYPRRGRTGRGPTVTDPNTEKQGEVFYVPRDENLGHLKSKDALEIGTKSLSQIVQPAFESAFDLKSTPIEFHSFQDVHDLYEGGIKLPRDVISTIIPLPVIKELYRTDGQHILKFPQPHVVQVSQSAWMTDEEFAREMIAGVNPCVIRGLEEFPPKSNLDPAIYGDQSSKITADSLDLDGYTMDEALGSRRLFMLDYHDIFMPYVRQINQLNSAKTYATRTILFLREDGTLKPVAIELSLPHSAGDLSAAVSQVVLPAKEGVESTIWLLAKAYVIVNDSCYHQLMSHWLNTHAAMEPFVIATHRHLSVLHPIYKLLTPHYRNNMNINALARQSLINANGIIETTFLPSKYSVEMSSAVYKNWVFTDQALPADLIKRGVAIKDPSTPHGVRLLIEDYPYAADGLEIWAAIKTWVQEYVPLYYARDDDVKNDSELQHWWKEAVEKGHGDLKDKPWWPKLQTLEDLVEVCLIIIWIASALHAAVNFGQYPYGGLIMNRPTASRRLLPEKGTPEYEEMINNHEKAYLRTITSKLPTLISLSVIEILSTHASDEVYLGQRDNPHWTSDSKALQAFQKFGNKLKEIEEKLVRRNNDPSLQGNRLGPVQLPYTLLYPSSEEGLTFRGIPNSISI
Method: as §2

[4] = system: histamine-induced bronchoconstriction in guinea pigs; assay: Inhibition of histamine-induced bronchoconstriction in guinea pigs in vivo; conditions: individual animals; second histamine injection; listed as SHAM

T1 sequence (P18054 whole entry): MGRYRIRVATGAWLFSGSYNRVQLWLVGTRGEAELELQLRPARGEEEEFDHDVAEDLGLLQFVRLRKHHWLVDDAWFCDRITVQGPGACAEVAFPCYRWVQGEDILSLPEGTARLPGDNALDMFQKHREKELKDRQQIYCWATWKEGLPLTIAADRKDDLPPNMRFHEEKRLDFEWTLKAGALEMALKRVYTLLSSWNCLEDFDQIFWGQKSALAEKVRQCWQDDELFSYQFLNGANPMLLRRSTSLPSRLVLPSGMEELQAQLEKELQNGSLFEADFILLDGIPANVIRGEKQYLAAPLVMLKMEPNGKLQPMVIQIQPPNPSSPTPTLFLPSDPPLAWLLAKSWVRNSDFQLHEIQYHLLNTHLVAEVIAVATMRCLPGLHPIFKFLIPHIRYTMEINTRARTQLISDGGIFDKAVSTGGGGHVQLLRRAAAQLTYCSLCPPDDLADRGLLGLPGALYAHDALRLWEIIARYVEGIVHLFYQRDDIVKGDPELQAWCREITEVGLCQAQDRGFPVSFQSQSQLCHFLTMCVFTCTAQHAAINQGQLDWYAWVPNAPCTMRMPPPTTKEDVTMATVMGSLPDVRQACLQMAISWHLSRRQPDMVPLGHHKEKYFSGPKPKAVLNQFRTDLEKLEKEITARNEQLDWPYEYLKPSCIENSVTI

EC50 (guinea pig lung strips; read-out: ED50 (dilatation)) [µM] | Compound | minimal effective concentration (guinea pig trachia) [µM] | EC84 (guinea pig lung strips; read-out: ED84 (dilatation)) [µM] | IC100 (thrombocyte aggregation) [µM] | Restraint (%) of carrageenin edema ([1]; 1 h) [%] | Restraint (%) of carrageenin edema ([1]; 2 h) [%] | Restraint (%) of carrageenin edema ([1]; 3 h) [%] | Restraint (%) of carrageenin edema ([1]; 4 h) [%] | Restraint (%) of carrageenin edema ([1]; 5 h) [%] | inhibition at 250 µM [2] [%] | inhibition at 1000 µM [3] [%] | volume change, after 5 μg/kg Histamine [4]
14 | O=C(COc1ccc2ccccc2c1)NO [2(2'-naphthoxy)-acethydroxamic acid] | 50 | 27 | 60 | 27.3 | 27.3 | 20.2 | 35.3 | 21.4 | – | – | –
– | O=C(NO)c1ccccc1O [salicylhydroxamic acid] | – | – | – | – | – | – | – | – | 100 | 60 | -49% and -95.7% and -62%
